According to article PMC5423977, “Safety, pharmacokinetics, and pharmacodynamics of BMS-986142, a novel reversible BTK inhibitor, in healthy participants” (European Journal of Clinical Pharmacology, 2017):
Where “and” joins values, the source holds several entries; their conditions need not be identical. Equal entries are not always repeated.

Legend:
[1] = Safety (adverse events), Study 2 MTX-DDI in healthy male participants
Protocol: This portion of the study was designed to assess the effect of BMS-986142 on the PK of MTX since MTX is used as a background therapy in RA patients and all patients will receive MTX when the phase 2 study of BMS-986142 is conducted. Eligible participants were confined to the clinical facility for the duration of treatment (15 days). Healthy participants were administered a single oral dose of 7.5 mg MTX on day 1. On day 2, participants received leucovorin (a single oral dose of 15 mg) as a preventive measure for MTX toxicity. After a washout period (days 2–5), BMS-986142 was administered on days 6–10 in 350-mg QD doses. A concomitant dose of MTX (7.5 mg) was administered on day 8, followed by leucovorin (15 mg) on day 9 (Online Resource 2). BMS-986142 was administered with 240 mL of water, and a minimum amount of additional water was permitted to allow dosing of all medications. Only healthy male participants (ages ≥18 to ≤50 years) were eligible for the MTX-DDI assessment in study 2. Other key inclusion and exclusion criteria were identical to those in study 1.
Participants were monitored for adverse events (AEs) throughout the study. Clinical laboratory tests, vital sign measurements, 12-lead ECGs, and physical examinations were performed at selected times throughout the dosing interval. Safety data was recorded in the participants’ medical records, and assessments were performed for emergent AEs or serious AEs (SAEs). For all AEs, causal relationship to the study drug was determined by an investigator.

[2] = system: CD69 expression on B cells; experiment: Ex vivo anti-IgD-dextran induced CD69 expression on B cells in whole blood; assay type: cell-based, human
Protocol: To assess the functional effect of BMS-986142 on a relevant pathway in the targeted cells, whole blood was stimulated ex vivo with anti-IgD-dextran to activate signal transduction through the B cell antigen receptor. B cells, identified by CD20, were assessed for expression of CD69. Blood was incubated without addition of anti-IgD-dextran to serve as a negative control. Samples were incubated for 24 h at 37 °C, and then fixed and stained for CD20 and CD69. CD69 expression was quantified by standardized flow cytometry. Fluorescence intensity was measured and reported in units of mean equivalents of soluble fluorescein (MESF). Background CD69 level was measured from samples without the addition of anti-IgD-dextran and was subtracted from the stimulated value. The anti-IgD specific CD69 induction was used for analysis. The result for each sample was expressed as a percentage inhibition relative to the pre-dose sample.
CD69 inhibition by BMS-986142 was tabulated by treatment and time, and corresponding changes from baseline were calculated and summarized. The inhibition of B cell receptor-mediated CD69 expression by BMS-986142 was descriptively summarized by treatment and study days. An exposure-response analysis was applied to characterize the relationship between BMS-986142 concentration and CD69 inhibition using a Bayesian Emax model. […]

[3] = BMS-986142 350 mg QD (Days 6 and 7), n = 12
[4] = BMS-986142 350 mg QD (Days 8 to 10) + MTX 7.5 mg (Day 8) + leucovorin 15 mg (Day 9), n = 12

Cc1c(-c2c(F)cc(C(N)=O)c3[nH]c4c(c23)CC[C@H](C(C)(C)O)C4)cccc1-n1c(=O)c2cccc(F)c2n(C)c1=O [BMS-986142, 6-fluoro-5-(R)-(3-(S)-(8-fluoro-1-methyl-2,4-dioxo-1,2-dihydroquinazolin-3(4H)-yl)-2-methylphenyl)-2-(S)-(2-hydroxypropan-2-yl)-2,3,4,9-tetrahydro-1H-carbazole-8-carboxamide]
AE SOC: Gastrointestinal Disorders [1, 3]: 0 n (%) | AE SOC: General disorders and administration site conditions [1, 3]: 0 n (%) | AE SOC: Infections and infestations [1, 3]: 0 n (%) | AE SOC: Injury, poisoning and procedural complications [1, 3]: 0 n (%) | AE SOC: Nervous system disorders [1, 3]: 1 (8.3) n (%) | AE SOC: Psychiatric disorders [1, 3]: 1 (8.3) n (%) | AE: Anxiety [1, 3]: 0 n (%) | AE: Arthropod Bite [1, 3]: 0 n (%) | AE: Asthenia [1, 3]: 0 n (%) | AE: Dizziness [1, 3]: 0 n (%) | AE: Fatigue [1, 3]: 0 n (%) | AE: Headache [1, 3]: 1 (8.3) n (%) | AE: Nausea [1, 3]: 0 n (%) | AE: Sleep Disorder [1, 3]: 1 (8.3) n (%) | AE: Tremor [1, 3]: 0 n (%) | AE: Viral Infection [1, 3]: 0 n (%) | Total participants with an event [1, 3]: 2 (16.7) n (%) | AE SOC: Gastrointestinal Disorders [1, 4]: 2 (16.7) n (%) | AE SOC: General disorders and administration site conditions [1, 4]: 1 (8.3) n (%) | AE SOC: Infections and infestations [1, 4]: 1 (8.3) n (%) | AE SOC: Injury, poisoning and procedural complications [1, 4]: 1 (8.3) n (%) | AE SOC: Nervous system disorders [1, 4]: 2 (16.7) n (%) | AE SOC: Psychiatric disorders [1, 4]: 1 (8.3) n (%) | AE: Anxiety [1, 4]: 1 (8.3) n (%) | AE: Arthropod Bite [1, 4]: 1 (8.3) n (%) | AE: Asthenia [1, 4]: 0 n (%) | AE: Dizziness [1, 4]: 2 (16.7) n (%) | AE: Fatigue [1, 4]: 1 (8.3) n (%) | AE: Headache [1, 4]: 1 (8.3) n (%) | AE: Nausea [1, 4]: 2 (16.7) n (%) | AE: Sleep Disorder [1, 4]: 0 n (%) | AE: Tremor [1, 4]: 0 n (%) | AE: Viral Infection [1, 4]: 1 (8.3) n (%) | Total participants with an event [1, 4]: 4 (33.3) n (%) | Number of AEs reported ([1]; Study 2, BMS-986142 on days 6 and 7): 2 AEs | Number of AEs reported ([1]; Study 2, concomitant MTX and BMS-986142 (days 8–10)): 9 AEs | AE: Cough ([1]; Study 2, n = 12): 0 n (%) | AE: Diarrhea ([1]; Study 2, n = 12): 0 n (%) | AE: Dizziness ([1]; Study 2, n = 12): 2 (16.7) n (%) | AE: Headache/tension headache ([1]; Study 2, n = 12): 1 (8.3) n (%) | AE: Nausea ([1]; Study 2, n = 12): 2 (16.7) n (%) | AE: Thermal burns ([1]; Study 2, n = 12): 0 n (%) | AE: Upper respiratory tract infection ([1]; Study 2, n = 12): 0 n (%) | Subjects with AEs ([1]; Study 2, n = 12): 4 (33.3) n (%) | IC50 ([2]; Homo sapiens, B-cell, plasma concentration, Bayesian Emax model, SAD and MAD data, read-out: IC50, concentration to inhibit 50% of CD69 expression): 145 nM and 0.083 µg/mL | Mean maximal inhibition of CD69 expression ([2]; dose levels greater than 100 mg): ~100%
